Test results: publication PMC6770469, “IDE Degrades Nociceptin/Orphanin FQ through an Insulin Regulated Mechanism” (International Journal of Molecular Sciences, 2019)
Where a SMILES comes first, the peptide text is derived from it. Where no end group is shown, it is not given here. [ ]: non-standard residue; d: D form. The star is where a group is joined. Sta = CC(C)C[C@H](N)[C@@H](O)CC(=O)O; Isovaleryl = CC(C)CC(=O)*

Assays:
[1] = test system: rat spinal cord peptidases; assay: OFQ/N cleavage by rat spinal cord homogenate with peptidase inhibitors (MALDI-MS); format: biochemical; details: rat spinal cord extract, 20 mM Tris-HCl 1 mM EDTA pH 7.8, 37 °C, 30 min; for inhibition of the formation of the (1-11) fragment from OFQ/N: PHMB 0.25 mM, pepstatin A 0.01 mM (Figure 6); for inhibition of the cleavage of OFQ/N into the bioactive fragments (1-11), (1-7), (1-6): TPCK 1 mM, PMSF 1 mM, NEM 1 mM (Figure 6)
Description: Tissue homogenate preparation: One rat spinal cord tissue was homogenized in 1 mL of ice-cold 20 mM Tris-HCl (Sigma, Milan, Italy) and 1 mM EDTA (Sigma, Milan, Sigma) using mechanical homogenizer. The obtained homogenate was centrifuged at 5000× g for 15 min at 4 °C. The supernatant was then centrifuged at 20,000× g for 15 min at 4 °C. Finally, the supernatant was divided into small aliquots and kept frozen at −80 °C [13].
Tissue extract (supernatant) incubation assays: Incubations were performed using one microliter of tissue extract diluted with 19 µL of 20 mM Tris-HCl 1 mM EDTA buffer pH 7.8 and 10 µL of Milli-Q water. Then, the reaction was initiated by the addition of 10 µL of OFQ/N 0.3 mM and continued at 37 °C for 30 min. Then, 40 µL of ice-cold methanol was used to stop the reaction. Incubation was repeated as mentioned above but adding different peptidase inhibitors. The inhibitors used for the incubation were: TPCK (tosyl phenylalanyl chloromethyl ketone) 1 mM, PMSF (phenylmethylsulfonyl fluoride) 1 mM, NEM (N-ethylmaleimide) 1 mM, PHMB (4-(hydroxymercuri)benzoic acid) 0.25 mM, pepstatin A 0.01 mM, and Ag^+ 1 mM. Enzyme assay including spinal cord homogenate was also validated using dynorphin B, as described previously. One microliter aliquots taken from each incubation mixture were analyzed using MALDI mass spectrometry. α-Cyano-4-hydroxycinnamic acid (4-HCCA) was used as matrix, and the final samples were spotted onto AnchorChip™ plate (Bruker Daltonics, 2013). The standard used for the calibration of the instrument is the Peptide Calibration Standard II by Bruker Daltonics, Macerata, Italy. Details and parameters of the instrument set-up were: mass range: 340–4000 Da; detector gain/reflector: 6.3x (2480 V); sample rate and digitizer settings: 2.50 GS/s; smartbeam parameter set: 4_large; positive ion mode; matrix suppression: off; random walk: complete sample; shots at raster spot: 200; limit diameter to: 800 µm; laser power: 20%; shots: 5000.

mouse = details: cited from earlier work
[2] = molecular target: T1, insulin-degrading enzyme (IDE) (Homo sapiens, UniProt P14735); assay: IDE degradation assays (time-course hydrolysis of the substrate, UPLC-HRMS); format: in vitro ADME
T1 construct: purchased Giotto Biotech, Florence, Italy
Description: IDE degradation assays: Insulin (Ins, 2 µM, purchased from Sigma, Milan, Italy) and nociceptin peptide (OFQ/N, 2 µM, synthesized by the Fmoc solid phase synthesis and purified in our laboratory using RP HPLC) were tested for their purity using electrospray mass spectrometry (over 98% purity), and hydrolyzed in the presence of insulin-degrading enzyme (IDE, 30 nM, purchased from Giotto Biotech, Florence, Italy) in phosphate buffer 1 mM (pH 7.4, Sigma). We applied 1-16 sequence of OFQ/N because there is no difference in binding of this fragment to NOP receptors. Ins and OFQ/N were hydrolyzed both separately and in a mixture. Moreover, a pre-incubation of OFQ/N with IDE for 20 min was also performed before the addition of Ins. In order to quench the reaction, the samples were diluted 1:1 with 1% TFA aqueous solution.
The peptide content of all samples was analyzed using a Q Exactive hybrid quadrupole-Orbitrap mass spectrometer (Thermo Scientific, Milan, Italy) coupled to an Ultimate 3000 HPLC RSLCnano system (Dionex Thermo Scientific, Milan, Italy) through an EASY-Spray source (Thermo Scientific, Milan, Italy) by using the instrument settings previously reported.

T1 sequence (P14735 whole entry, species assumed): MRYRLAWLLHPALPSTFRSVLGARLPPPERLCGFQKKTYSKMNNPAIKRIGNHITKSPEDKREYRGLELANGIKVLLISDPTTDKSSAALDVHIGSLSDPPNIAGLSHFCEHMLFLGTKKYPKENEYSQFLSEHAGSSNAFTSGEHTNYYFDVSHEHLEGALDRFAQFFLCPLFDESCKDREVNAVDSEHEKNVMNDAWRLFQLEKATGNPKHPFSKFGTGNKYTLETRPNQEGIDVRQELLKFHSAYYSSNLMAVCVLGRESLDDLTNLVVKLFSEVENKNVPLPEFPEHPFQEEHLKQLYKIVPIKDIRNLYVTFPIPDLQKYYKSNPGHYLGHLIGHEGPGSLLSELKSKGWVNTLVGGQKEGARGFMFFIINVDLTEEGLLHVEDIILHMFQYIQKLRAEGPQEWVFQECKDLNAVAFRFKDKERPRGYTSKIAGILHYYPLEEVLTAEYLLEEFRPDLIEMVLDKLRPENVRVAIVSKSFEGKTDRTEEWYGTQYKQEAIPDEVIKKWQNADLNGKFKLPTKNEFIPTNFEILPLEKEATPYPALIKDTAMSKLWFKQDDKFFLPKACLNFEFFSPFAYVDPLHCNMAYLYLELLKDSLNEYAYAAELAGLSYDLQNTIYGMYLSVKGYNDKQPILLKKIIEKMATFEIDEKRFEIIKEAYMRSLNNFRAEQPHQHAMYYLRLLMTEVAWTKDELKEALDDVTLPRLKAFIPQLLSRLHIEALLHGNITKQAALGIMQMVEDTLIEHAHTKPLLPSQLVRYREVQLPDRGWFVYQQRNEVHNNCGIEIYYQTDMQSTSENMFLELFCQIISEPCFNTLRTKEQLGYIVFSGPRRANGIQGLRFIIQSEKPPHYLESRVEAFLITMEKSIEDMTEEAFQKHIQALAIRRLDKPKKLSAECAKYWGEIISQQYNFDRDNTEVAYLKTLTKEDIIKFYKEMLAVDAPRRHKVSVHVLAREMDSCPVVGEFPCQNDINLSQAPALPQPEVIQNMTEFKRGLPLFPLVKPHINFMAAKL

CC(C)CC(=O)N[C@H](C(=O)N[C@H](C(=O)N[C@@H](CC(C)C)[C@@H](O)CC(=O)N[C@@H](C)C(=O)N[C@@H](CC(C)C)[C@@H](O)CC(=O)O)C(C)C)C(C)C [Pepstatin A] (Isovaleryl-VV[Sta]A[Sta]-OH)
inhibition of the formation of the (1-11) fragment from OFQ/N [1]: slightly inhibits

O=S(=O)(F)Cc1ccccc1 [PMSF, phenylmethylsulfonyl fluoride]
inhibition of the cleavage of OFQ/N into the bioactive fragments (1-11), (1-7), (1-6) [1]: not efficiently inhibited

O=C(O)c1cc[c]([Hg][OH])cc1 [PHMB, 4-(hydroxymercuri)benzoic acid]
inhibition of the formation of (1-7) and (1-6) from OFQ/N ([1]; PHMB 0.25 mM (Figure 6)): inhibits
inhibition of the formation of the (1-11) fragment from OFQ/N [1]: blocks the formation of the (1-11)fragment more than all the other inhibitors

Cc1ccc(S(=O)(=O)N[C@@H](Cc2ccccc2)C(=O)CCl)cc1 [TPCK, tosyl phenylalanyl chloromethyl ketone]
inhibition of the cleavage of OFQ/N into the bioactive fragments (1-11), (1-7), (1-6) [1]: not efficiently inhibited

(1-6): OFQ/N fragment (1-6), final product from (1-11) (FGGFTG; Nociceptin; UniProt Q13519 130-135, looked up, fragment)
effect in different analgesic tests (bi-phasic) (mouse; after ICV (Intracerebroventricular) and intrathecal injection, as reported in the literature): antinociception followed by a hyperalgesia

CCN1C(=O)C=CC1=O [NEM, N-ethylmaleimide]
inhibition of the cleavage of OFQ/N into the bioactive fragments (1-11), (1-7), (1-6) [1]: does not show inhibition

FGGFTGARKSARKLAN [OFQ/N, Nociceptin/Orphanin 1-16]
time within which the substrate was almost completely degraded by IDE ([2]; OFQ/N 2 µM alone, IDE 30 nM, phosphate buffer 1 mM pH 7.4, 37 °C, LC-MS (Figure 3A)): ≤ 10 min
OFQ/N content as % of the original value ([2]; OFQ/N and Ins 1:1 molar ratio (2 µM each) co-incubated with IDE 30 nM, phosphate buffer 1 mM pH 7.4, 37 °C, 30 min reaction, LC-MS (Figure 3B)): 80%
content of OFQ/N, fold lower than its starting value ([2]; after 20 min pre-incubation of OFQ/N 2 µM with IDE 30 nM at 37 °C, before addition of Ins, phosphate buffer 1 mM pH 7.4, LC-MS (Figure 4A)): 5 fold

(1-7): OFQ/N fragment (1-7), bioactive shorter sequence (FGGFTGA; Nociceptin; UniProt Q13519 130-136, looked up, fragment)
effect on hyperalgesia induced by OFQ/N (mouse; injected in mice): blocks hyperalgesia
